The source of these data is patent US9433667B2, “Cancer vaccines and vaccination methods” (Cedars-Sinai Medical Center, priority 2006, dated 2016).

Assay [1] relates to T2 pulsed Her-2 native peptide. The assay can be described thus: IFN-γ production of Her-2 APL-specific CTLs induced in vitro from patient-derived PBMCs. The settings on record: among four CTLs, two HLA-A*0201 GBM patients, P<0.05 vs No. 52. It counts as cell-based, human. The protocol: FIGS. 3A and 3B are bar graphs that show IFN-γ levels after in vitro induction of CTL in patient-derived PBMCs with native or superagonist Her-2 peptides in accordance with an embodiment of the present invention in two different patients.
(§1) The following protocol can be used to produce antigen specific CTL in vitro from patient derived PBMC. To generate dendritic cells, the plastic adherent cells from PBMCs are cultured in AIM-V medium supplemented with recombinant human GM-CSF and recombinant human IL-4 at 37° C. in a humidified CO2 (5%) incubator. Six days later, the immature dendritic cells in the cultures are stimulated with recombinant human TNF-α for maturation. Mature dendritic cells are then harvested on day 8, resuspended in PBS at 1×10^6 per mL with peptide (2 μg/mL), and incubated for 2 hours at 37° C. Autologous CD8+ T cells are enriched from PBMCs using magnetic microbeads (Miltenyi Biotech, Auburn, Calif.). CD8+ T cells (2×10^6 per well) are cocultured with 2×10^5 per well peptide-pulsed dendritic cells in 2 mL/well of AIM-V medium supplemented with 5% human AB serum and 10 units/mL rhIL-7 (Cell Sciences) in each well of 24-well tissue culture plates. About 20 U/ml of IL-2 is added 24 h later at regular intervals, 2 days after each restimulation. […] After 24 hours incubation, IFN-γ in the medium is measured by ELISA assay. […]

The test system of assay [2] is T cells specific for ML-M epitope 19-30. The assay can be described thus: Epitope-specific T cell responses in mice after IV immunization, measured by cell proliferation in vitro. It counts as in vivo, C3H mice. The settings on record: for T cell response after immunization: IV immunization, lymph node T cells recalled with peptides, FIG. 1. On the procedure: FIG. 1 is a graph depicting levels of epitope-specific T cell responses in mice following immunization IV with mouse lysozyme-M (ML-M), a mouse lysozyme peptide (p19-30), and a mouse lysozyme peptide modified with dibasic residues (18R31R), as measured by cell proliferation in vitro. T cells were isolated from lymph nodes of the animals (3 animals per group) and response to each immunogen was measured.
In studies using mouse lysozyme-M (ML-M) as a model self Ag, it was observed that mice of diverse MHC haplotypes were tolerant to native (unmutated) ML-M and peptide forms of certain T cell epitopes. It was hypothesized that tolerance to a given epitope was not an inherent structural characteristic, but was attributable in part to inefficient processing of the epitope, owing either to the absence of a proteolytic cleavage site adjacent to that determinant, or to the inaccessibility to the proteolytic enzyme(s) of an existing cleavage site within that region of the molecule. In either case, the provision of a new proteolytic cleavage site adjacent to a cryptic determinant may permit scission of the peptide at that site, making the previously cryptic epitope region available for binding to the appropriate MHC molecule, and lead to presentation to specific T cells of that determinant as a neodominant epitope on the APC surface. To test this proposition, a dibasic motif, consisting of two contiguous basic amino acid residues, e.g., arg-arg (RR) or arg-lys (RK), was used.
The targeted regions within ML-M included residues 19-31, which contain cryptic epitopes for mice of the H-2^k haplotype, shown in Table 7.

For assay [3], the system named is T2 pulsed with gp100 native peptide. The assay can be described thus: IFN-γ production of gp100 APL-specific CTLs induced in vitro from patient-derived PBMCs. It counts as cell-based, human. The settings on record: among six CTLs, two HLA-A*0201 GBM patients, P<0.05 vs gp100 (2M). On the procedure:
FIGS. 2A and 2B are bar graphs that show IFN-γ levels after in vitro induction of CTL in patient-derived PBMCs with dendritic cells pulsed with gp100(2M) or superagonist gp100 peptides in accordance with an embodiment of the present invention in two separate patients.
as §1

“H- F M A N V A I P H L -NH2 (H-FMANVAIPHL-NH2) [No. 19]”: the “IFN-γ level of CTL stimulated by the peptide” value in assay [1] was “highest IFN-γ level”.

For “RR-GYYGVSLADWVC-RR (RRGYYGVSLADWVCRR; RR flanking dibasic residues; Synthetically generated peptide) [RR-p18-31-RR]”, the “T cell response after immunization” value in assay [2] is given as “raised a potent T cell response”. Further, in assay [2] (recall antigen in vitro), the “in vitro restimulation of T cells primed by RR-p18-31-RR” value is given as “could be restimulated”.

“H- Y M D Q V P Y S V -NH2 (H-YMDQVPYSV-NH2) [No. 38]”: the “IFN-γ level of CTL stimulated by the peptide” value in assay [3] is given as “highest IFN-γ level”.

B1: mouse lysozyme-M (protein, UniProt P08905 19-148, looked up)
Lysozyme C-2: KVYERCEFARTLKRNGMAGYYGVSLADWVCLAQHESNYNTRATNYNRGDQSTDYGIFQINSRYWCNDGKTPRAVNACGINCSALLQDDITAAIQCAKRVVRDPQGIRAWVAWRAHCQNRDLSQYIRNCGV
notes: model self antigen, native (unmutated) mouse lysozyme-M
On to B1, for which the “T cell response after immunization” value in assay [2] is recorded as “failed to respond”.
